Reference: the supplement of paper PMC4862054

Key:
Experiment in all cases: normalised viability (% of control), CellTiter-Blue; higher = more viable cells (100 = DMSO, 0 = benzethonium chloride kill control)
Settings in all cases: incubation time: 72 h
[1] = test system: MFM-223
Procedure: (§1)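 DSRT, CellTiter-Blue viability, 72 h incubation. Signal is normalised to DMSO and benzethonium chloride controls. Value is the normalised response at dose 1.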

[2] = test system: BT-549
Procedure: as §1

[3] = test system: MDA-MB-231
Procedure: as §1

[4] = test system: HCC1143
Procedure: as §1

[5] = test system: HDQ-P1
Procedure: as §1

[6] = test system: HCC1599
Procedure: as §1

[7] = test system: CAL-148
Procedure: as §1

[8] = test system: DU-4475
Procedure: as §1

[9] = test system: Hs578T
Procedure: as §1

[10] = test system: CAL-85-1
Procedure: as §1

[11] = test system: CAL-120
Procedure: as §1

[12] = test system: MDA-MB-468
Procedure: as §1

[13] = test system: MDA-MB-453
Procedure: as §1

[14] = test system: HCC1937
Procedure: as §1

[15] = test system: SK-BR-3
Procedure: as §1

[16] = test system: BT-474
Procedure: as §1

[17] = test system: MDA-MB-436
Procedure: as §1

[18] = test system: CAL-51
Procedure: as §1

COc1cc(Nc2ncc(F)c(Nc3ccc4c(n3)NC(=O)C(C)(C)O4)n2)cc(OC)c1OC [R406] (1 nM)
normalised viability [1]: 93.3%
normalised viability [2]: 97%
normalised viability [3]: 95.7%
normalised viability [4]: 91.6%
normalised viability [5]: 116%
normalised viability [6]: 101%
normalised viability [7]: 110%
normalised viability [8]: 112%
normalised viability [9]: 116%
normalised viability [10]: 84.8%
normalised viability [11]: 83.5%
normalised viability [12]: 94.1%
normalised viability [13]: 106%
normalised viability [14]: 91.6%
normalised viability [15]: 102%
normalised viability [16]: 117%
normalised viability [17]: 92.1%
normalised viability [18]: 106%

c1ccc(C2CN3CCSC3=N2)cc1 (centres undefined) [Tetramisole] (1 nM)
normalised viability [1]: 98.5%
normalised viability [2]: 97.8%
normalised viability [3]: 99.2%
normalised viability [4]: 107%
normalised viability [5]: 126%
normalised viability [6]: 95.3%
normalised viability [7]: 117%
normalised viability [8]: 83%
normalised viability [9]: 110%
normalised viability [10]: 96.5%
normalised viability [11]: 118%
normalised viability [12]: 112%
normalised viability [13]: 106%
normalised viability [14]: 94.3%
normalised viability [15]: 116%
normalised viability [16]: 80.2%
normalised viability [17]: 102%
normalised viability [18]: 91.6%

CCCC(CCC)C(=O)O [Valproic acid] (1 nM)
normalised viability [1]: 104%
normalised viability [2]: 98.6%
normalised viability [3]: 97.7%
normalised viability [4]: 99.1%
normalised viability [5]: 119%
normalised viability [6]: 83.6%
normalised viability [7]: 103%
normalised viability [8]: 109%
normalised viability [9]: 130%
normalised viability [10]: 95.3%
normalised viability [11]: 105%
normalised viability [12]: 102%
normalised viability [13]: 108%
normalised viability [14]: 115%
normalised viability [15]: 103%
normalised viability [16]: 99%
normalised viability [17]: 89.9%
normalised viability [18]: 99.8%
